According to ChEMBL document CHEMBL1201862, “PubChem BioAssay data set” (2004):
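Where inhibition never reached the appropriate level, the endpoint shown equals the highest concentration tested. Otherwise, values were interpolated linearly from a five-concentration, 48-hour dose response in 96-well plates. At the GI50, growth is halved.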 Calls of active or inactive are those of the source. No stated cut-off is given here; in the data, active = GI50 up to about 1.1 µM and inactive = higher.

What was measured:
Test in all cases: NCI tumour cell line growth inhibition, 48 h
[1] = system: 786-0
[2] = system: CAKI-1
[3] = system: HOP-62
[4] = system: HOP-92
[5] = system: KM-20L2
[6] = system: KM12
[7] = system: M19-MEL
[8] = system: Malme-3M
[9] = system: NCI-H226
[10] = system: NCI-H23
[11] = system: OVCAR-4
[12] = system: OVCAR-5
[13] = system: OVCAR-8
[14] = system: RXF 393
[15] = system: SK-OV-3
[16] = system: SN12C
[17] = system: U-251
[18] = system: SK-MEL-5

SMILES	GI50 [1]	GI50 [2]	GI50 [3]	GI50 [4]	GI50 [5]	GI50 [6]	GI50 [7]	GI50 [8]	GI50 [9]	GI50 [10]	GI50 [11]	GI50 [12]	GI50 [13]	GI50 [14]	GI50 [15]	GI50 [16]	GI50 [17]	GI50 [18]
Nc1nc(-c2ccccc2)cc(-c2ccccc2O)n1	48.6 µM (inactive)	34.1 µM (inactive)	25.1 µM (inactive)	> 100 µM (inactive)	30.2 µM (inactive)	23.9 µM (inactive)	43.1 µM (inactive)	> 100 µM (inactive)	19 µM (inactive)	43.3 µM (inactive)	51.6 µM (inactive)	32.8 µM (inactive)	39.7 µM (inactive)	27.3 µM (inactive)	85.9 µM (inactive)	37.8 µM (inactive)	45.2 µM (inactive)	
CCc1ccccc1NC(=O)/C(=N/O)C(C)=O	> 100 µM (inactive)	> 100 µM (inactive)	> 100 µM (inactive)		> 100 µM (inactive)	> 100 µM (inactive)	> 100 µM (inactive)	> 100 µM (inactive)	62.1 µM (inactive)	> 100 µM (inactive)	> 100 µM (inactive)		> 100 µM (inactive)	> 100 µM (inactive)	> 100 µM (inactive)	96.8 µM (inactive)	> 100 µM (inactive)	> 100 µM (inactive)
CC1CCCP(=O)(c2ccccc2)CCC1 (stereo not given)	> 100 µM (inactive)	> 100 µM (inactive)	> 100 µM (inactive)		> 100 µM (inactive)	> 100 µM (inactive)	> 100 µM (inactive)	> 100 µM (inactive)		> 100 µM (inactive)	> 100 µM (inactive)	> 100 µM (inactive)	> 100 µM (inactive)	> 100 µM (inactive)	> 100 µM (inactive)	> 100 µM (inactive)	> 100 µM (inactive)	> 100 µM (inactive)
O=C(Cc1nc2ccccc2s1)C(=O)Nc1cccc(Cl)c1	> 100 µM (inactive)	> 100 µM (inactive)	> 100 µM (inactive)	> 100 µM (inactive)	> 100 µM (inactive)	> 100 µM (inactive)	> 100 µM (inactive)	> 100 µM (inactive)	> 100 µM (inactive)	> 100 µM (inactive)	> 100 µM (inactive)	> 100 µM (inactive)	> 100 µM (inactive)	> 100 µM (inactive)	> 100 µM (inactive)	> 100 µM (inactive)	> 100 µM (inactive)	> 100 µM (inactive)
Cc1nc2sccn2c1C(=O)NC(=O)Nc1ccc(Cl)cc1	48.2 µM (inactive)	> 100 µM (inactive)	41.3 µM (inactive)	31.2 µM (inactive)	> 100 µM (inactive)	> 100 µM (inactive)	> 100 µM (inactive)	> 100 µM (inactive)	71.9 µM (inactive)	35.7 µM (inactive)	> 100 µM (inactive)	> 100 µM (inactive)	> 100 µM (inactive)	37.8 µM (inactive)		> 100 µM (inactive)	50.5 µM (inactive)	> 100 µM (inactive)
CC(=O)OCC1OC(OC2C(COC(C)=O)OC(Sc3ccccc3C)C(OC(C)=O)C2OC(C)=O)C(OC(C)=O)C(OC(C)=O)C1OC(C)=O (stereo not given)	> 100 µM (inactive)	> 100 µM (inactive)	> 100 µM (inactive)	55 µM (inactive)	> 100 µM (inactive)	> 100 µM (inactive)	> 100 µM (inactive)	> 100 µM (inactive)	> 100 µM (inactive)	> 100 µM (inactive)	> 100 µM (inactive)	> 100 µM (inactive)		> 100 µM (inactive)	> 100 µM (inactive)	> 100 µM (inactive)	> 100 µM (inactive)	> 100 µM (inactive)
N=C(c1ccccc1)N(c1ccccc1)c1ccccc1	28.1 µM (inactive)	> 100 µM (inactive)	> 100 µM (inactive)	< 0.01 µM (active)	> 100 µM (inactive)	25.2 µM (inactive)	> 100 µM (inactive)	23.4 µM (inactive)	23.1 µM (inactive)	> 100 µM (inactive)	88.9 µM (inactive)	76.7 µM (inactive)	> 100 µM (inactive)	30.5 µM (inactive)		22.5 µM (inactive)	> 100 µM (inactive)	
CCOC(=O)/C(C(C)=O)=C1/N[C@H](C(=O)OCC)CS1	> 100 µM (inactive)	> 100 µM (inactive)	> 100 µM (inactive)		> 100 µM (inactive)	> 100 µM (inactive)	> 100 µM (inactive)	> 100 µM (inactive)	> 100 µM (inactive)	> 100 µM (inactive)	> 100 µM (inactive)	> 100 µM (inactive)	> 100 µM (inactive)	> 100 µM (inactive)		> 100 µM (inactive)	> 100 µM (inactive)	> 100 µM (inactive)
CC1(C)N=C(c2ccccn2)C(c2ccccn2)=NC1(C)C	> 100 µM (inactive)	> 100 µM (inactive)		> 100 µM (inactive)	> 100 µM (inactive)	> 100 µM (inactive)	> 100 µM (inactive)	> 100 µM (inactive)	> 100 µM (inactive)		> 100 µM (inactive)	> 100 µM (inactive)	> 100 µM (inactive)	> 100 µM (inactive)		> 100 µM (inactive)	> 100 µM (inactive)	> 100 µM (inactive)
N#CC(C(=O)/C(=N/NC(=O)c1ccccc1O)C(C#N)c1ccc(Br)cc1)c1ccc(Br)cc1 (stereo not given)	12.7 µM (inactive)		14.4 µM (inactive)	16.7 µM (inactive)	15.4 µM (inactive)	12.9 µM (inactive)	11.7 µM (inactive)	11.9 µM (inactive)	5.52 µM (inactive)	4.74 µM (inactive)	15.6 µM (inactive)	15.7 µM (inactive)	6.43 µM (inactive)	4.71 µM (inactive)	36.8 µM (inactive)	9.12 µM (inactive)	11.6 µM (inactive)	9.55 µM (inactive)
Cc1cccc(-c2nnc3s/c(=C\c4ccc5c(c4)OCO5)c(=O)n23)c1	> 100 µM (inactive)	> 100 µM (inactive)	> 100 µM (inactive)	> 100 µM (inactive)	> 100 µM (inactive)	> 100 µM (inactive)	> 100 µM (inactive)	> 100 µM (inactive)	> 100 µM (inactive)	> 100 µM (inactive)	> 100 µM (inactive)	> 100 µM (inactive)	> 100 µM (inactive)	> 100 µM (inactive)	> 100 µM (inactive)	> 100 µM (inactive)	> 100 µM (inactive)	> 100 µM (inactive)
COC(=O)[C@]12CCC(C)[C@H](C)[C@H]1C1=CCC3[C@@]4(C)CC[C@H](OC(C)=O)C(C)(C)C4CC[C@@]3(C)C1(C)C(O)C2 (stereo not given in full)	> 100 µM (inactive)	> 100 µM (inactive)	> 100 µM (inactive)	> 100 µM (inactive)	> 100 µM (inactive)	> 100 µM (inactive)	> 100 µM (inactive)	> 100 µM (inactive)	27.1 µM (inactive)	> 100 µM (inactive)	> 100 µM (inactive)	> 100 µM (inactive)	> 100 µM (inactive)		> 100 µM (inactive)	> 100 µM (inactive)	> 100 µM (inactive)	> 100 µM (inactive)
